Measurements taken from patent publication US11530206B2, “Phenylaminopyrimidine amide autophagy inhibitors and methods of use thereof” (Deciphera Pharmaceuticals, LLC, priority 2019, dated 2022).

Legend:
[1] = biological target: T1, ULK1 kinase (Homo sapiens, UniProt O75385); experiment: Biochemical assay for ULK1.2 (coupled pyruvate kinase/lactate dehydrogenase assay); conditions: 19 nM ULK1 (residues 1-314, His tag), myelin basic protein, 1 mM ATP
T1 construct: purchased Eurofins 14-959
T1 sequence (O75385 with tags, fused parts or gaps): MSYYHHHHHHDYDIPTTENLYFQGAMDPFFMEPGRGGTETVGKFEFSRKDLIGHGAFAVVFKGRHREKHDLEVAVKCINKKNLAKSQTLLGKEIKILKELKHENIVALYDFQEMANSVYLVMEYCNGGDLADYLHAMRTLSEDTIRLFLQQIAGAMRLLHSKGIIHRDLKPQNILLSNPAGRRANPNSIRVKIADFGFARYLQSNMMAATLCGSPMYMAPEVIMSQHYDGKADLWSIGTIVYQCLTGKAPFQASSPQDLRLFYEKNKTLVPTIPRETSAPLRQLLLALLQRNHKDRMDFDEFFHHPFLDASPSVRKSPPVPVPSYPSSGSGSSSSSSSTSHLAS
Experimental: Biochemical Assay for ULK1.2 (SEQ. ID NO: 1)
Inhibition of ULK1 was measured by adding serial diluted test compound (final assay concentration of 1% DMSO). A decrease in absorption at 340 nm was monitored continuously for 6 hours at 30° C. on a multi-mode microplate reader (BioTek). The reaction rate was calculated using the 2-3 h time frame. The reaction rate at each concentration of compound was converted to percent inhibition using controls (i.e. reaction with no test compound and reaction with a known inhibitor) and IC50 values were calculated by fitting a four-parameter sigmoidal curve to the data using Prism (GraphPad software).

[2] = biological target: T2, ULK2 kinase (Homo sapiens, UniProt Q8IYT8); experiment: Biochemical assay for ULK2 (coupled pyruvate kinase/lactate dehydrogenase assay); conditions: 9.7 nM ULK2 (residues 1-306, GST and His tag), myelin basic protein, 1 mM ATP; read-out: ULK2.2
T2 construct: purchased Eurofins 14-772
Experimental: Example 132. Biochemical Assay for ULK2 (SEQ. ID NO: 3)
Activity of ULK2 kinase was determined spectroscopically using a coupled pyruvate kinase/lactate dehydrogenase assay that continuously monitors the ATP hydrolysis-dependent oxidation of NADH (e.g., Schindler et al. Science (2000) 289: 1938-1942). Assays were conducted in 384-well plates (100 uL final volume) using 9.7 nM ULK2 (Eurofins CAT #14-772), 0.25 mg/mL myelin basic protein, 1.5 units pyruvate kinase, 2.1 units lactate dehydrogenase, 1 mM phosphoenol pyruvate, 0.28 mM NADH and 1 mM ATP in assay buffer (100 mM Tris, pH 7.5, 15 mM MgCl2, 0.5 mM DTT, 0.1% octyl-glucoside, 0.002% (w/v) BSA, and 0.002% Triton X-100). Inhibition of ULK2 was measured by adding serial diluted test compound (final assay concentration of 1% DMSO). A decrease in absorption at 340 nm was monitored continuously for 6 hours at 30° C. on a multi-mode microplate reader (BioTek). The reaction rate was calculated using the 2-3 h time frame. The reaction rate at each concentration of compound was converted to percent inhibition using controls (i.e. reaction with no test compound and reaction with a known inhibitor) and IC50 values were calculated by fitting a four-parameter sigmoidal curve to the data using Prism (GraphPad software).

[3] = system: ULK kinase; experiment: pATG13 levels of mutant KRas MiaPaCa-2 cells after treatment with ULK inhibitors in combination with trametinib (ELISA); assay type: cell-based, human; conditions: MiaPaCa-2 pancreatic cancer cells, 250 nM trametinib, overnight, pS318-ATG13
Outline: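 MiaPaCa-2 cells in DMEM with 10% FBS and 2.5% horse serum were pretreated with trametinib or DMSO, then given a test-compound dose response overnight at 37° C. Lysates were assayed for phospho-ATG13 by ELISA (A450 minus A540 background, blank-corrected). % phosphorylation was calculated relative to controls and fitted to IC50.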

[4] = system: ULK kinase; experiment: pATG13 levels of mutant KRas A549 cells after treatment with ULK inhibitors in combination with trametinib (ELISA); assay type: cell-based, human; conditions: A549 (KRAS mutant) lung cancer cells, 250 nM trametinib, overnight, pS318-ATG13
Outline: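 Lysates with phosphatase/protease inhibitors assayed by pATG13 ELISA, A450 minus A540 background and blank-corrected. % ATG13 phosphorylation versus DMSO controls fitted to IC50.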

[5] = biological target: T3, LRRK2 kinase (Homo sapiens, UniProt Q5S007); experiment: Biochemical assay for LRRK2 (coupled pyruvate kinase/lactate dehydrogenase assay); conditions: 26.4 nM LRRK2 (residues 970-2528), peptide substrate, 1 mM ATP
T3 construct: purchased Thermo Fisher
Experimental: Example 138. Biochemical Assay for LRRK2 (SEQ. ID NO: 4)
Activity of LRRK2 kinase was determined spectroscopically using a coupled pyruvate kinase/lactate dehydrogenase assay that continuously monitors the ATP hydrolysis-dependent oxidation of NADH (e.g., Schindler et al. Science (2000) 289: 1938-1942). Assays were conducted in 384-well plates (100 μL final volume) using 26.4 nM LRRK2 (Thermo Fisher), 0.1 mM peptide substrate ([…] (SEQ ID NO: 6)), 1.5 units pyruvate kinase, 2.1 units lactate dehydrogenase, 1 mM phosphoenol pyruvate, 0.28 mM NADH and 1 mM ATP in assay buffer (100 mM Tris, pH 7.5, 15 mM MgCl2, 0.5 mM DTT, 0.004% (w/v) BSA, and 0.004% Triton X-100). Inhibition of LRRK2 was measured by adding serial diluted test compound (final assay concentration of 1% DMSO). A decrease in absorption at 340 nm was monitored continuously for 6 hours at 30° C. on a multi-mode microplate reader (BioTek). The reaction rate was calculated using the 2-3 h time frame. The reaction rate at each concentration of compound was converted to percent inhibition using controls (i.e. reaction with no test compound and reaction with a known inhibitor) and IC50 values were calculated using software routines in Prism (GraphPad software).

[6] = biological target: T4, ULK1 kinase (Homo sapiens, UniProt O75385, E37A/K38A); experiment: Biochemical assay for ULK1.3 (coupled pyruvate kinase/lactate dehydrogenase assay, peptide substrate); conditions: 0.1 nM ULK1 (residues 1-283), 1 mM ATP
T4 construct: purchased Beryllium
T4 sequence (O75385 1-283 E37A/K38A): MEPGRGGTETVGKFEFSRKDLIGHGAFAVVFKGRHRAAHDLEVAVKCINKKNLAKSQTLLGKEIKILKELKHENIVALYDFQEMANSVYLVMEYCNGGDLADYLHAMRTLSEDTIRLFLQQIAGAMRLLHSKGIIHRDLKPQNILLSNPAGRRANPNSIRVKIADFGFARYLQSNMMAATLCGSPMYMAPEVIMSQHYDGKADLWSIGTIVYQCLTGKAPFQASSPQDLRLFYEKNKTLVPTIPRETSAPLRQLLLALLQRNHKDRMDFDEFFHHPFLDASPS
Outline: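 ULK1.3 activity was followed by continuous decrease in 340 nm absorbance over 6 h at 30 °C with 1% DMSO final. Rates were taken from the 2–3 h window and converted to percent inhibition against no-compound and known-inhibitor controls. IC50 values came from curve fitting.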

T3 sequence (Q5S007 with tags, fused parts or gaps): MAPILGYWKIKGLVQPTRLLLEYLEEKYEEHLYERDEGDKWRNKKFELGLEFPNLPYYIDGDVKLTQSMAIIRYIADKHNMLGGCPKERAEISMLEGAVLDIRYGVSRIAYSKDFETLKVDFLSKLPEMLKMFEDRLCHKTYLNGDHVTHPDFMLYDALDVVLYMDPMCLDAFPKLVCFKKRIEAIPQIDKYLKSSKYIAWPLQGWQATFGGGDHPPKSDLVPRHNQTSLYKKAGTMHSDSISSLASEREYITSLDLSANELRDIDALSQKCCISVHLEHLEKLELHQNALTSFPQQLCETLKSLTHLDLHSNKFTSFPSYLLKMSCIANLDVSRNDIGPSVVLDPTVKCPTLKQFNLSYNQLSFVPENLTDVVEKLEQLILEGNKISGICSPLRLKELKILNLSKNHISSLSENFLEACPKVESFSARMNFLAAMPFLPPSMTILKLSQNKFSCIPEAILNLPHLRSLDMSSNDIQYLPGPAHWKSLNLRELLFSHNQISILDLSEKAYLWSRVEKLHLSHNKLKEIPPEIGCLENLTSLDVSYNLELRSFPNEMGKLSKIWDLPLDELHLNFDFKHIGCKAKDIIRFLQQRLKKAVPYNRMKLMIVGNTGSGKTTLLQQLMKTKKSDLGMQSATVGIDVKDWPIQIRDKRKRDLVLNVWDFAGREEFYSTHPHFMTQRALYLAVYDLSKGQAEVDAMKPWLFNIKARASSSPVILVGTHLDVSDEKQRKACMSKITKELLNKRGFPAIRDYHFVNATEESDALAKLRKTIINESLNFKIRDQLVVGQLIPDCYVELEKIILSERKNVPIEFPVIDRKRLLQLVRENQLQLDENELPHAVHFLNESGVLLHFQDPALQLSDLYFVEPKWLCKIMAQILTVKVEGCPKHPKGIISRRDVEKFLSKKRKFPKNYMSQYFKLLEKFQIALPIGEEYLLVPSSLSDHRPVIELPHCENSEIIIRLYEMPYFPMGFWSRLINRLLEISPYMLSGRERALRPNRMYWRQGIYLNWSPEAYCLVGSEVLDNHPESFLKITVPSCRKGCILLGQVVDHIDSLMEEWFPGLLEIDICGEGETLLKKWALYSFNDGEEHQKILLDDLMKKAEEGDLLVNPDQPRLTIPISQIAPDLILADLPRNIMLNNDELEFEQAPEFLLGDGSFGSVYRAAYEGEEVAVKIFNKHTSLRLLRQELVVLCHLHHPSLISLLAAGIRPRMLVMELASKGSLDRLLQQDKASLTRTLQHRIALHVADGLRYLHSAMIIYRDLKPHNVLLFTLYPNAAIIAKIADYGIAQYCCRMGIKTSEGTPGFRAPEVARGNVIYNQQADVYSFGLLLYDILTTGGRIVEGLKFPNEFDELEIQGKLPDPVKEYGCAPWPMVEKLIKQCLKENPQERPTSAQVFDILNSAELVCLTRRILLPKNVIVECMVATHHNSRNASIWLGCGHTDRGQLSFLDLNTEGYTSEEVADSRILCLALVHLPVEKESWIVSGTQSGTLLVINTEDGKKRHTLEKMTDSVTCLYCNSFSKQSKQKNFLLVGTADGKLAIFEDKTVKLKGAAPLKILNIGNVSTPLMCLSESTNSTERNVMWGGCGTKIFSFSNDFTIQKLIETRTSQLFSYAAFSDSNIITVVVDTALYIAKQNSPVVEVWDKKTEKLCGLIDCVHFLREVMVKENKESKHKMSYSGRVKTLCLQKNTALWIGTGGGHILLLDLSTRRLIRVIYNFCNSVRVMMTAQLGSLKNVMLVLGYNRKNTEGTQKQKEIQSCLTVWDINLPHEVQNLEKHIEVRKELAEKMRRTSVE
T2 sequence (Q8IYT8 with tags, fused parts or gaps): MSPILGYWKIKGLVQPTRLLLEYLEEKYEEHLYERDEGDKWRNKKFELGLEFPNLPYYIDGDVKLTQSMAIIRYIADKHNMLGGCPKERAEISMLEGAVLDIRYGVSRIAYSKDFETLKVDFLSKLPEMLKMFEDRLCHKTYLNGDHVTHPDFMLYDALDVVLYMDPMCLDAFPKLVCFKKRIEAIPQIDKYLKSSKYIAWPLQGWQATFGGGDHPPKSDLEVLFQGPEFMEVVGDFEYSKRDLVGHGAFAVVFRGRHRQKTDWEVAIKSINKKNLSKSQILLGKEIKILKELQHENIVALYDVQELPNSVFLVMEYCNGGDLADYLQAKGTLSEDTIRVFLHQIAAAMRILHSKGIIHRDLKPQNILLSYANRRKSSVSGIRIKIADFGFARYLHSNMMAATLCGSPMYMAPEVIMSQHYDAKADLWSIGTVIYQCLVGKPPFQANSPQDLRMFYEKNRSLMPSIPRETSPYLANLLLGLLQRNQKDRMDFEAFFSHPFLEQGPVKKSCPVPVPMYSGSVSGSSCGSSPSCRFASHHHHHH

Row | IC50 [1] [nM] | IC50 [2] [nM] | IC50 [3] [nM] | IC50 [4] [nM] | IC50 [5] [nM] | IC50 [6] [nM] | SMILES
1 | > 500 | > 500 | – | – | 1 to 100 | – | Cc1cc(-c2cnn(C)c2)ccc1Nc1ncc(C(F)(F)F)c(NCCCN2CCCCC2=O)n1 [Example 108]
2 | > 500 | > 500 | – | – | 300 to 600 | – | Cc1cc(N2CCOCC2)ncc1Nc1ncc(C(F)(F)F)c(NCCCN2CCCCC2=O)n1 [Example 90]
3 | 1 to 25 | 25 to 100 | 100 to 300 | 10 to 100 | – | – | Cc1cc(N2CCN(C)CC2)ccc1Nc1ncc(C(F)(F)F)c(NCCCN2CCOCCC2=O)n1 [Example 65]
4 | > 500 | > 500 | – | > 600 | 1 to 100 | – | Cc1cc(-c2cn(C)cn2)ccc1Nc1ncc(C(F)(F)F)c(NCCCN2CCOCCC2=O)n1 [Example 109]
5 | – | 25 to 100 | – | – | 100 to 300 | – | CCc1cc(N2CCN(C)CC2)ccc1Nc1ncc(C(F)(F)F)c(NCCCN2CCOCCC2=O)n1 [Example 66]
6 | 100 to 500 | > 500 | – | – | – | – | Cc1cc(N2CCN(C)CC2)ncc1Nc1cc(NCCCN2CCCCC2=O)c(C(F)(F)F)cn1 [Example 95]
7 | 25 to 100 | 100 to 500 | > 600 | 100 to 300 | – | 25 to 100 | Cc1cc(N2CCN(C)CC2)ncc1Nc1ncc(C(F)(F)F)c(NCCCN2CCCCC2=O)n1 [Example 91]
8 | > 500 | > 500 | – | – | – | – | Cc1cc(N2CCOCC2)ncc1Nc1cc(NCCCN2CCCCC2=O)c(C(F)(F)F)cn1 [Example 96]
9 | 1 to 25 | > 500 | > 600 | – | – | – | O=C1CCOCCN1CCCNc1nc(Nc2ccc(N3CCOCC3)cc2C2CC2)ncc1C(F)(F)F [Example 71]
10 | > 500 | > 500 | – | – | – | – | O=C1COCCCN1CCCNc1nc(Nc2ccc(N3CCOCC3)cc2C2CC2)ncc1Cl [Example 59]
11 | 25 to 100 | > 500 | 300 to 600 | – | – | – | CCc1cc(N2CCOCC2)ccc1Nc1ncc(C(F)(F)F)c(NCCCN2CCOCCC2=O)n1 [Example 72]

Second part, the molecule before the results:

Row | SMILES | IC50 [1] [nM] | IC50 [2] [nM] | IC50 [3] [nM] | IC50 [4] [nM] | IC50 [5] [nM] | IC50 [6] [nM]
12 | O=C1CCCCN1CCCNc1nc(Nc2ccc(N3CCCNCC3)cc2)ncc1C(F)(F)F [Example 9, 1-(3-((2-((4-(1,4-diazepan-1-yl)phenyl)amino)-5-(trifluoromethyl)pyrimidin-4-yl)amino)propyl)piperidin-2-one] | 1 to 25 | 1 to 25 | – | – | – | –
13 | Cc1cc(N2CCN(C3CCC3)CC2)ccc1Nc1ncc(C(F)(F)F)c(NCCCN2CCCCC2=O)n1 [Example 21] | 1 to 25 | 1 to 25 | 100 to 300 | 300 to 600 | – | –
14 | CCN1CCCN(c2ccc(Nc3ncc(C(F)(F)F)c(NCCCN4CCCCC4=O)n3)cc2)CC1 [Example 10, 1-(3-((2-((4-(4-ethyl-1,4-diazepan-1-yl)phenyl)amino)-5-(trifluoromethyl)pyrimidin-4-yl)amino)propyl)piperidin-2-one] | 1 to 25 | 1 to 25 | 100 to 300 | 100 to 300 | – | –
15 | Cc1cc(N2CCN(C3CC3)CC2)ccc1Nc1ncc(C(F)(F)F)c(NCCCN2CCCCC2=O)n1 [Example 22] | 1 to 25 | 100 to 500 | – | – | – | –
16 | CCc1cc(N2CCOCC2)ccc1Nc1ncc(C(F)(F)F)c(NCCCN2CCCOCC2=O)n1 [Example 50] | 100 to 500 | > 500 | > 600 | > 600 | 1 to 100 | –
17 | CCc1cc(N2CCN(C)CC2)ccc1Nc1ncc(C(F)(F)F)c(NCCCN2CCCC2=O)n1 [Example 4] | 25 to 100 | 100 to 500 | 300 to 600 | 300 to 600 | – | –
18 | Cc1cc(C2CCN(C)CC2)ccc1Nc1ncc(C(F)(F)F)c(NCCCN2CCCCC2=O)n1 [Example 8] | 25 to 100 | 100 to 500 | – | 100 to 300 | – | –
19 | CCN1CCN(c2ccc(Nc3ncc(C(F)(F)F)c(NCCCN4CCCCC4=O)n3)c(C3CC3)c2)CC1 [Example 13] | 1 to 25 | 1 to 25 | 10 to 100 | 10 to 100 | – | –
20 | CCN1CCN(c2ccc(Nc3ncc(C(F)(F)F)c(NCCCN4CCCCC4=O)n3)c(C)c2)CC1 [Example 19] | 1 to 25 | 25 to 100 | 100 to 300 | 100 to 300 | – | –
21 | CCc1cc(N2CCOCC2)ccc1Nc1ncc(Cl)c(NCCCN2CCCOCC2=O)n1 [Example 57] | > 500 | > 500 | – | > 600 | – | –
22 | O=C1COCCCN1CCCNc1nc(Nc2ccc(N3CCOCC3)cc2C2CC2)ncc1C(F)(F)F [Example 51] | 100 to 500 | > 500 | – | – | 1 to 100 | –
23 | Cc1cc(C2CCNCC2)ccc1Nc1ncc(C(F)(F)F)c(NCCCN2CCCCC2=O)n1 [Example 7] | 25 to 100 | 100 to 500 | – | > 600 | – | –
24 | CCc1cc(N2CCN(CC)CC2)ccc1Nc1ncc(C(F)(F)F)c(NCCCN2CCCCC2=O)n1 [Example 12] | 1 to 25 | 1 to 25 | 10 to 100 | 10 to 100 | – | –
25 | Cc1cc(N2CCN(CCF)CC2)ccc1Nc1ncc(C(F)(F)F)c(NCCCN2CCCCC2=O)n1 [Example 18] | 100 to 500 | 25 to 100 | – | – | 1 to 100 | –
